Test results taken from ChEMBL document CHEMBL1201862, “PubChem BioAssay data set” (2004).
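Five concentrations, 48 hours, 96-well plates. GI50 = concentration required for 50% inhibition of growth.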 Activity calls are given as the source filed them. No stated cut-off is given here; in the data, active = GI50 up to about 1.1 µM and inactive = higher.

Experiments:
Assay in all cases: NCI anticancer screen, dose series, 48 h
786-0 = tested on: 786-0
A549 = tested on: A549
COLO 205 = tested on: COLO 205
HCC 2998 = tested on: HCC 2998
K562 = tested on: K562
M14 = tested on: M14
Malme-3M = tested on: Malme-3M
NCI-H226 = tested on: NCI-H226
SF-268 = tested on: SF-268
SF-539 = tested on: SF-539
SR = tested on: SR
A498 = tested on: A498
CAKI-1 = tested on: CAKI-1
OVCAR-5 = tested on: OVCAR-5
SK-MEL-5 = tested on: SK-MEL-5
SK-OV-3 = tested on: SK-OV-3

Measured: GI50

CN(C)c1ccc(-c2cc(O)c3ccccc3n2)cc1
inactive: 786-0 > 100 µM | A549 > 100 µM | COLO 205 > 100 µM | HCC 2998 > 100 µM | K562 > 100 µM | M14 > 100 µM | Malme-3M > 100 µM | NCI-H226 > 100 µM | SF-268 > 100 µM | SF-539 > 100 µM | SR > 100 µM

CN1CCc2c1nc(-c1cccnc1)c1c2N(C)CC1
inactive: 786-0 > 100 µM | A498 52 µM | A549 > 100 µM | CAKI-1 > 100 µM | COLO 205 > 100 µM | HCC 2998 > 100 µM | K562 > 100 µM | M14 > 100 µM | Malme-3M > 100 µM | OVCAR-5 > 100 µM | SF-268 > 100 µM | SF-539 > 100 µM | SK-MEL-5 > 100 µM | SK-OV-3 > 100 µM

Cc1ccccc1C1=C(C(=O)Nc2ccc(Cl)c(Cl)c2)NC(=S)NC1N (stereo not drawn)
inactive: 786-0 > 100 µM | A498 > 100 µM | A549 > 100 µM | CAKI-1 > 100 µM | COLO 205 > 100 µM | K562 > 100 µM | M14 > 100 µM | Malme-3M > 100 µM | OVCAR-5 82.6 µM | SF-268 > 100 µM | SF-539 > 100 µM | SK-MEL-5 > 100 µM | SK-OV-3 > 100 µM

Cc1ccccc1C1=[N+]([O-])c2ccccc2C1=O
inactive: 786-0 17.4 µM | A498 83.8 µM | A549 > 10 µM | COLO 205 15.7 µM | K562 20.9 µM | M14 18.4 µM | Malme-3M 18.4 µM | NCI-H226 16.3 µM | OVCAR-5 27.6 µM | SF-268 20.5 µM | SF-539 19.1 µM | SK-MEL-5 16.8 µM | SK-OV-3 > 100 µM | SR 54.7 µM

CNC(=S)N/N=C1\CC(c2ccccc2)Oc2ccccc21 (stereo not drawn)
inactive: 786-0 > 100 µM | A549 > 100 µM | CAKI-1 > 100 µM | COLO 205 > 100 µM | HCC 2998 > 100 µM | K562 > 100 µM | M14 > 100 µM | Malme-3M > 100 µM | NCI-H226 43.7 µM | OVCAR-5 > 100 µM | SF-268 > 100 µM | SF-539 > 100 µM | SK-MEL-5 88.5 µM | SK-OV-3 > 100 µM | SR > 100 µM

CC[P+]1(c2ccccc2)CCCCC1
inactive: 786-0 > 100 µM | A549 > 100 µM | CAKI-1 > 100 µM | COLO 205 > 100 µM | HCC 2998 > 100 µM | K562 > 100 µM | M14 > 100 µM | Malme-3M > 100 µM | NCI-H226 > 100 µM | OVCAR-5 > 100 µM | SF-268 > 100 µM | SF-539 > 100 µM | SK-MEL-5 > 100 µM | SK-OV-3 > 100 µM | SR > 100 µM

COc1ccc(C2C3=C(COC3=O)Oc3cc4c(cc32)OCO4)cc1 (stereo not drawn)
inactive: 786-0 27.2 µM | A549 9.18 µM | CAKI-1 7.53 µM | COLO 205 13 µM | K562 3.85 µM | M14 17.7 µM | Malme-3M 56 µM | SF-539 19.4 µM | SK-MEL-5 11.7 µM | SK-OV-3 > 100 µM

Cc1oc2c(C)c(O)c3c(c2c1C1(C)OCCO1)C(=O)C=C(Cl)C3=O
inactive: 786-0 > 100 µM | A498 > 100 µM | A549 > 100 µM | CAKI-1 > 100 µM | COLO 205 > 100 µM | K562 > 100 µM | M14 > 100 µM | NCI-H226 > 100 µM | OVCAR-5 > 100 µM | SF-268 > 100 µM | SF-539 > 100 µM | SK-MEL-5 > 100 µM | SR > 100 µM

N#CC(C#N)=Cc1ccc(CP(=O)(O)O)cc1
inactive: 786-0 > 100 µM | A498 > 100 µM | A549 > 100 µM | CAKI-1 > 100 µM | COLO 205 > 100 µM | HCC 2998 > 100 µM | K562 > 100 µM | M14 > 100 µM | Malme-3M > 100 µM | NCI-H226 > 100 µM | OVCAR-5 > 100 µM | SF-268 > 100 µM | SF-539 > 100 µM | SK-MEL-5 > 100 µM | SK-OV-3 > 100 µM

Cc1cc(N(CCC#N)CCC#N)ccc1/N=N/c1cccc(Cl)c1
inactive: 786-0 > 100 µM | A498 > 100 µM | A549 9.93 µM | CAKI-1 2.96 µM | COLO 205 > 100 µM | K562 3.42 µM | M14 > 100 µM | Malme-3M > 100 µM | NCI-H226 > 100 µM | OVCAR-5 > 100 µM | SF-539 > 100 µM | SK-MEL-5 > 100 µM | SK-OV-3 > 100 µM

O=C(c1ccccc1)c1c(C(=O)c2ccccc2)c(-c2ccccc2)c2c(-c3ccccc3)sc(-c3ccccc3)c2c1-c1ccccc1
inactive: 786-0 > 100 µM | A498 > 100 µM | A549 > 100 µM | CAKI-1 > 100 µM | COLO 205 > 100 µM | HCC 2998 > 100 µM | K562 > 100 µM | M14 > 100 µM | Malme-3M > 100 µM | NCI-H226 > 100 µM | OVCAR-5 > 100 µM | SF-268 > 100 µM | SF-539 > 100 µM | SK-MEL-5 > 100 µM | SK-OV-3 > 100 µM

Oc1cc(O)c(Oc2cccc(O)c2O)c(O)c1
inactive: 786-0 42.6 µM | A498 > 100 µM | A549 > 100 µM | CAKI-1 > 100 µM | COLO 205 > 100 µM | HCC 2998 > 100 µM | K562 35 µM | M14 > 100 µM | Malme-3M > 100 µM | OVCAR-5 > 100 µM | SF-268 > 100 µM | SF-539 > 100 µM | SK-MEL-5 18.6 µM | SK-OV-3 > 100 µM

O=C1[C@H]2C(c3ccccc3)=NN(C(=O)c3ccccc3)[C@H]2C(=O)N1c1ccccc1
inactive: 786-0 > 100 µM | A549 > 100 µM | COLO 205 > 100 µM | K562 > 100 µM | M14 > 100 µM | Malme-3M > 100 µM | NCI-H226 > 100 µM | SF-539 > 100 µM | SK-OV-3 > 100 µM

CC1=C(C(=O)Nc2ccccc2C)C(c2ccc(Cl)cc2)C(C(=O)Nc2ccccc2C)=C(C)N1
inactive: 786-0 > 100 µM | A549 > 100 µM | CAKI-1 > 100 µM | COLO 205 > 100 µM | HCC 2998 > 100 µM | K562 > 100 µM | M14 > 100 µM | Malme-3M > 100 µM | NCI-H226 > 100 µM | OVCAR-5 > 100 µM | SF-268 > 100 µM | SF-539 > 100 µM | SK-MEL-5 > 100 µM | SK-OV-3 > 100 µM | SR > 100 µM

COc1ccccc1/C=C\c1cc(OC)c(OC)c(OC)c1
inactive: 786-0 31.2 µM | A498 7.64 µM | A549 6.08 µM | CAKI-1 8.22 µM | COLO 205 4.46 µM | K562 4.06 µM | M14 5.85 µM | Malme-3M 16.5 µM | NCI-H226 19.2 µM | OVCAR-5 34 µM | SF-539 6.4 µM | SK-MEL-5 4.33 µM
